Here are results for 41 compounds from patent US8114880B2, “Piperidine or piperazine substituted tetrahydro-naphthalene-1-carboxylic acid MTP inhibiting compounds” (Janssen Pharmaceutica N.V., priority 2006, dated 2012).

Structures are written as SMILES.

In one data set the test system is HepG2 cells. Kind of data set: Quantification of the secretion of ApoB. In kind it is cell-based. Conditions: 24 hours of incubation; for IC50: Homo sapiens, HepG2, 24 h, pIC50 = -log IC50. An outline of the steps: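 At 70% confluency, HepG2 cells received compound (0.4% DMSO final) for 24 h. Secreted apoB in cleared medium was immunoprecipitated with sheep anti-apoB then rabbit anti-sheep antibody (24 h each at 8° C.), and pellet radioactivity was counted by scintillation. IC50 values were expressed as pIC50.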

The target in a further data set is MTP (Homo sapiens, UniProt P55157). The data set can be described thus: MTP assay (triglyceride transfer from donor to acceptor vesicles). Format: biochemical. The note with it: MTP activity, percent triglyceride transfer from donor to acceptor vesicles, 37° C. Put shortly: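 Radiolabelled triglyceride transfer from donor vesicles (phosphatidylcholine, 7.5 mol % cardiolipin, 0.25 mol % glycerol tri[1-^14C]-oleate) to phosphatidylcholine acceptor vesicles with BSA, pH 7.5 Tris buffer; compounds in DMSO (0.13% final), 5 min preincubation at 37° C before MTP addition. Donor vesicles removed on DEAE-52; acceptor-supernatant ^14C counts give percent transfer.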
Chain of MTP (P55157 19-894, species assumed): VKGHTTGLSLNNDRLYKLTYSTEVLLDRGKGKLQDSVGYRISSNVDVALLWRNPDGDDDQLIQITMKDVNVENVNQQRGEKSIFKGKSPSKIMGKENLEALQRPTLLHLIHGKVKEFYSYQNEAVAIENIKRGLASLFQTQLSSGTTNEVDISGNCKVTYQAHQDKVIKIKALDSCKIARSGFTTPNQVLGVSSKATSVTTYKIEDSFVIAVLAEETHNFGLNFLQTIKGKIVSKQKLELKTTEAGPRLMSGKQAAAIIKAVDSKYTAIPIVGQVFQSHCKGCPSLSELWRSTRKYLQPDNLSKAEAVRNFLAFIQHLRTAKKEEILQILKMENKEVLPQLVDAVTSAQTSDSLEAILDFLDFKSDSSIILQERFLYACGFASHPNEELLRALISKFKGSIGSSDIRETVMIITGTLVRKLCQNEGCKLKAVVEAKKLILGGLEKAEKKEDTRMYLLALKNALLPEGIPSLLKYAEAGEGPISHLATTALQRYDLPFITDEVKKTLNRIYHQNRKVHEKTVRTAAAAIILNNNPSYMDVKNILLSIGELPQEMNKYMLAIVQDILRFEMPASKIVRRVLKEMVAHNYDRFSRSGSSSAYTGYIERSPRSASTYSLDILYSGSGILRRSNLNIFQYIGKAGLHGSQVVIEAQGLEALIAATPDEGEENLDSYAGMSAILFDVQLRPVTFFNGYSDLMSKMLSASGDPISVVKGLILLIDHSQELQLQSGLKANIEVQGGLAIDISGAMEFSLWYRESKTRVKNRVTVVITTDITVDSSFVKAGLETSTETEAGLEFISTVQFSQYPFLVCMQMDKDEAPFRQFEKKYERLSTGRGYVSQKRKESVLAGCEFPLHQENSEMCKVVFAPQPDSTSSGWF
Chain of MTP (P07237 18-508 partner, species assumed): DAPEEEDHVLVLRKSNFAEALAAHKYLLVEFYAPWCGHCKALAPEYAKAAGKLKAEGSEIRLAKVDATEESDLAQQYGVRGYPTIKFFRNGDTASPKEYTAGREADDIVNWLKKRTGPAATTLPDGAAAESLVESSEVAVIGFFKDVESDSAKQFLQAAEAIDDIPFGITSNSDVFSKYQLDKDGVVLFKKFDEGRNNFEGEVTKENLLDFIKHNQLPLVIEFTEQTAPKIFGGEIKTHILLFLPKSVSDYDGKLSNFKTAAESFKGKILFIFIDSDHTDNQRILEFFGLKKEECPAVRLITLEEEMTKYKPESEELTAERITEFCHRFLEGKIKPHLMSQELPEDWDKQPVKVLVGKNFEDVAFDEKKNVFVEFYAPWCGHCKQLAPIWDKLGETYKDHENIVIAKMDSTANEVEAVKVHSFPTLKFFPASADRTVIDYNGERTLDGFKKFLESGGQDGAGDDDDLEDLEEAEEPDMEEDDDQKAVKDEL

`C=CCOC(=O)[C@]1(c2ccccc2)CC[C@@H](C(=O)N2CCC(NC(=O)c3ccccc3)CC2)c2ccccc21` [Co. No. 13] displayed a melting point of 103 to 107 °C. Also, 28.8 nM corresponded to half-maximal inhibition in the data set with HepG2 cells (IC50). Also, the IC50 against MTP was 6.05 nM.
Consider `CCNC(=O)[C@]1(c2ccccc2)CC[C@@H](C(=O)N2CCC(NC(=O)c3ccc(Cl)cc3OC)CC2)c2ccccc21` [Co. No. 21], for which the IC50 in the data set with HepG2 cells is 27.6 nM; against MTP, 9.84 nM.
For `CCOC(=O)[C@@]1(c2ccccc2)CC[C@H](C(=O)N2CCC(NC(=O)c3ccccc3OC)CC2)c2ccccc21` [Co. No. 34] the same measures were 3.79 nM and 1.16 nM.
In the case of `CCOC(=O)[C@H](CC(C)C)NC(=O)[C@@]1(c2ccccc2)CC[C@H](C(=O)N2CCC(NC(=O)c3ccccc3OC)CC2)c2ccccc21` [Co. No. 70], the IC50 was over 1000 nM in the data set on HepG2 cells and 35.3 nM at MTP.
Take `COc1ccccc1C(=O)NC1CCN(C(=O)[C@H]2CC[C@@](C(=O)NCCCCCC(=O)OC(C)C)(c3ccccc3)c3ccccc32)CC1` [Co. No. 208]: the IC50 in the data set on HepG2 cells was 57.7 nM; against MTP it was 1.86 nM.
For `CCOC(=O)CC(C)NC(=O)[C@@]1(c2ccccc2)CC[C@H](C(=O)N2CCC(NC(=O)c3ccccc3OC)CC2)c2ccccc21` (some centres unmarked) [Co. No. 200] the same measures were 255 nM and 6.79 nM.
`CCOC(=O)[C@@H](NC(=O)[C@@]1(c2ccccc2)CC[C@H](C(=O)N2CCC(NC(=O)c3ccccc3OC)CC2)c2ccccc21)c1ccccc1` [Co. No. 80]: the half-maximal inhibitory concentration (IC50) in the data set with HepG2 cells was 548 nM; at MTP, 70.1 nM.
Regarding `CCOC(=O)C1CCCCN1C(=O)[C@@]1(c2ccccc2)CC[C@H](C(=O)N2CCC(NC(=O)c3ccccc3OC)CC2)c2ccccc21` (some centres unmarked) [Co. No. 83], the half-inhibitory concentration (IC50) in the data set on HepG2 cells was 670 nM; against MTP, 71.4 nM.
In the same order, the values of `COC(=O)CCNC(=O)[C@]1(c2ccccc2)CC[C@@H](C(=O)N2CCC(NC(=O)c3ccccc3OC)CC2)c2ccccc21` [Co. No. 256] are over 1000 nM and over 1000 nM.
For `COc1ccccc1C(=O)NC1CCN(C(=O)[C@H]2CC[C@@](C(=O)N[C@H](Cc3ccccc3)C(=O)OC(C)(C)C)(c3ccccc3)c3ccccc32)CC1` [Co. No. 96] the same measures were 512 nM and 38.2 nM.
`COC(=O)[C@]1(c2ccccc2)CC[C@@H](C(=O)N2CCC(NC(=O)c3ccccc3OC(F)F)CC2)c2ccccc21` [Co. No. 54]: the results for the IC50 in the data set with HepG2 cells and at MTP were 65.8 nM and 10.4 nM, respectively.
Take `COc1ccccc1C(=O)NC1CCN(C(=O)[C@@H]2CC[C@@](C(N)=O)(c3ccccc3)c3ccccc32)CC1` (single isomer, unassigned) [Co. No. 41]: the IC50 was 35.8 nM in the data set with HepG2 cells and over 10000 nM against MTP.
For `CC(C)OC(=O)CCNC(=O)[C@@]1(c2ccccc2)CC[C@H](C(=O)N2CCC(NC(=O)c3cccn(C)c3=O)CC2)c2ccccc21` [Co. No. 222], the 50% inhibitory concentration (IC50) in the data set with HepG2 cells was over 1000 nM; on MTP, 45.8 nM.
Turning to `CCOC(=O)[C@H](CCCCNC(=O)OC(C)(C)C)NC(=O)[C@@]1(c2ccccc2)CC[C@H](C(=O)N2CCC(NC(=O)c3ccccc3OC)CC2)c2ccccc21` [Co. No. 210], the values for the concentration for half-maximal inhibition (IC50) in the data set on HepG2 cells and on MTP were 8.67 nM and 2.95 nM, respectively.
Regarding `CCOC(=O)[C@H](CCCCNC(=O)OC(C)(C)C)NC(=O)[C@@]1(c2ccccc2)CC[C@H](C(=O)N2CCC(NC(=O)c3cccn(C)c3=O)CC2)c2ccccc21` [Co. No. 231], the figures for the IC50 in the data set with HepG2 cells and against MTP were over 1000 nM and over 100 nM, respectively.
As to `CCOC(=O)[C@]1(c2ccccc2)CC[C@@H](C(=O)N2CCC(NC(=O)c3ccccc3N3CCOCC3)CC2)c2ccccc21` [Co. No. 252], the concentration for half-maximal inhibition (IC50) in the data set with HepG2 cells was 3.52 nM; against MTP it was 2.49 nM.
On to `COC(=O)CCNC(=O)[C@@]1(c2ccccc2)CC[C@H](C(=O)N2CCC(NC(=O)c3ccccc3N3CCN(C)CC3)CC2)c2ccccc21` [Co. No. 272], for which the IC50 in the data set with HepG2 cells was 670 nM; against MTP it was 50.9 nM.
For `COc1ccccc1C(=O)NC1CCN(C(=O)[C@H]2CC[C@@](C(=O)NCCCC(=O)OC(C)C)(c3ccccc3)c3ccccc32)CC1` [Co. No. 250] the same measures were 343 nM and 1.79 nM.
For `CCOC(=O)[C@]1(c2ccccc2)CC[C@@H](C(=O)N2CCC(NC(=O)c3cc(Cl)c(N)cc3OC)CC2)c2ccccc21` [Co. No. 24], the results for the half-maximal inhibitory concentration (IC50) with HepG2 cells and against MTP were 202 nM and 54.8 nM, respectively.
`CC(C)OC(=O)CCCCCNC(=O)[C@@]1(c2ccccc2)CC[C@H](C(=O)N2CCC(NC(=O)c3cccn(C)c3=O)CC2)c2ccccc21` [Co. No. 229]: the results for the half-maximal inhibitory concentration (IC50) in the data set on HepG2 cells and against MTP were over 1000 nM and 7.57 nM, respectively.
In the case of `COC(=O)[C@H](CCCCNC(=O)OC(C)(C)C)NC(=O)[C@@]1(c2ccccc2)CC[C@H](C(=O)N2CCC(NC(=O)c3cccn(C)c3=O)CC2)c2ccccc21` [Co. No. 148], the figures for the IC50 in the data set on HepG2 cells and at MTP were over 1000 nM and 131 nM, respectively.
`COC(=O)[C@]1(c2ccccc2)CC[C@@H](C(=O)N2CCC(NC(=O)c3cccnc3OC)CC2)c2ccccc21` [Co. No. 56]: the IC50 in the data set on HepG2 cells is 2.24 nM; against MTP, 1.69 nM.
In the data set with HepG2 cells (pIC50 = -log IC50, listed as 8), `C=CCOC(=O)[C@]1(c2ccccc2)CC[C@@H](C(=O)N2CCC(NC(=O)c3ccccc3OC)CC2)c2ccccc21` [Co. No. 8] gave a pIC50 of 8.188. This compound gave an IC50 against MTP of 2.82 nM.
For `CCOC(=O)CC[C@H](NC(=O)[C@@]1(c2ccccc2)CC[C@H](C(=O)N2CCC(NC(=O)c3ccccc3OC)CC2)c2ccccc21)C(=O)OCC` [Co. No. 74], the 50% inhibitory concentration (IC50) in the data set with HepG2 cells was over 1000 nM; on MTP, 5.08 nM.
`COc1ccccc1C(=O)NC1CCN(C(=O)[C@H]2CC[C@@](C(N)=O)(c3ccccc3)c3ccccc32)CC1` (single isomer, unassigned) [Co. No. 44]: the 50% inhibitory concentration (IC50) with HepG2 cells is 106 nM; against MTP it was over 1000 nM.
For `CCOC(=O)[C@@]1(c2ccccc2)CC[C@H](C(=O)N2CCC(NC(=O)c3cccnc3OC(C)C)CC2)c2ccccc21` [Co. No. 274] the same measures were 17.3 nM and 4.69 nM.
With `CCOC(=O)[C@]1(c2ccccc2)CC[C@@H](C(=O)N2CCN(C(=O)c3ccc(C)cc3-c3ccc(C(F)(F)F)cc3)CC2)c2ccccc21` [Co. No. 28], the 50% inhibitory concentration (IC50) with HepG2 cells was 329 nM; against MTP, over 100 nM.
For the compound `CCNC(=O)[C@]1(c2ccccc2)CC[C@@H](CN2CCC(NC(=O)c3ccccc3OC)CC2)c2ccccc21` [Co. No. 15], the IC50 in the data set with HepG2 cells was 186 nM; on MTP, 50.2 nM.
For the compound `CCOC(=O)NCCCC[C@@H](NC(=O)[C@@]1(c2ccccc2)CC[C@H](C(=O)N2CCC(NC(=O)c3ccccc3OC)CC2)c2ccccc21)C(=O)OC(C)C` [Co. No. 218], the IC50 in the data set with HepG2 cells is 65 nM; against MTP, 2.41 nM.
As to `CCOC(=O)CCNC(=O)[C@@]1(c2ccccc2)CC[C@H](C(=O)N2CCC(NC(=O)c3cccn(C)c3=O)CC2)c2ccccc21` [Co. No. 159], the IC50 with HepG2 cells is over 1000 nM; against MTP, 129 nM.
`COc1ccccc1C(=O)NC1CCN(C(=O)[C@H]2CC[C@](C(=O)NCCC(=O)OC(C)C)(c3ccc(Br)cc3)c3cc(Br)ccc32)CC1` [Co. No. 275]: the concentration for half-maximal inhibition (IC50) in the data set on HepG2 cells and against MTP was over 1000 nM each time.
With `CCOC(=O)[C@]1(c2ccccc2)CC[C@@H](C(=O)N2CCN(C(=O)c3ccccc3OC)CC2)c2ccccc21` [Co. No. 27], the half-inhibitory concentration (IC50) in the data set with HepG2 cells is 778 nM; against MTP, 65.2 nM.
Take `CCOC(=O)[C@@H](CCCCNC(=O)OC(C)(C)C)NC(=O)[C@@]1(c2ccccc2)CC[C@H](C(=O)N2CCC(NC(=O)c3ccccc3OC)CC2)c2ccccc21` [Co. No. 216]: the IC50 was 31.1 nM with HepG2 cells and 6.7 nM against MTP.
Turning to `COC(=O)CCNC(=O)[C@@]1(c2ccccc2)CC[C@H](C(=O)N2CCC(NC(=O)c3cccn(C)c3=O)CC2)c2ccccc21` [Co. No. 138], the results for the half-inhibitory concentration (IC50) with HepG2 cells and against MTP were over 1000 nM and 596 nM, respectively.
Take `COc1ccccc1C(=O)NC1CCN(C(=O)[C@H]2CC[C@@](C(=O)NCC(=O)OC(C)(C)C)(c3ccccc3)c3ccccc32)CC1` [Co. No. 62]: the results for the IC50 with HepG2 cells and at MTP were 42.1 nM and 0.713 nM, respectively.
With `CCNC(=O)[C@]1(c2ccccc2)CC[C@@H](C(=O)N2CCC(NC(=O)c3ccccc3OC)CC2)c2ccccc21` (racemic) [Co. No. 7], the IC50 in the data set with HepG2 cells is 2.28 nM; against MTP, 6.47 nM.
With `COC(=O)CCNC(=O)[C@@]1(c2ccccc2)CC[C@H](C(=O)N2CCC(NC(=O)c3cccnc3O)CC2)c2ccccc21` [Co. No. 255], the IC50 in the data set with HepG2 cells was over 1000 nM; at MTP it was 585 nM.
`CCOC(=O)[C@@]1(c2ccccc2)CC[C@H](C(=O)N2CCC(NC(=O)c3ccccc3O)CC2)c2ccccc21` [Co. No. 36]: the IC50 in the data set on HepG2 cells was 11.7 nM; against MTP it was 3.47 nM.
For `CCCOC(=O)CCCCCNC(=O)[C@@]1(c2ccccc2)CC[C@H](C(=O)N2CCC(NC(=O)c3ccccc3OC)CC2)c2ccccc21` [Co. No. 246], the half-inhibitory concentration (IC50) in the data set with HepG2 cells was 234 nM; against MTP it was 3.87 nM.
In the case of `CCOC(=O)[C@@H](CCCCNC(=O)OC(C)C)NC(=O)[C@@]1(c2ccccc2)CC[C@H](C(=O)N2CCC(NC(=O)c3ccccc3OC)CC2)c2ccccc21` [Co. No. 220], the half-inhibitory concentration (IC50) in the data set on HepG2 cells is 21.1 nM; against MTP, 1.86 nM.
For `CCOC(=O)CCCNC(=O)[C@@]1(c2ccccc2)CC[C@H](C(=O)N2CCC(NC(=O)c3cccn(C)c3=O)CC2)c2ccccc21` [Co. No. 225] the same measures were over 1000 nM and over 100 nM.

A word on the melting point: it is the temperature of the solid-liquid transition. Usually IC50 stands for the concentration that gives 50% inhibition. A high value points to weaker potency. The pIC50 is the IC50 on a negative log10 scale, so that one unit is a factor of ten.
